Data published in patent US6599499B1, “Uses of diterpenoid triepoxides as an anti-proliferative agent” (priority 1999, dated 2003).

Conditions: room temperature
Experimental: Stock solutions of PG490-88 (1 mg/ml) were prepared by dissolution in 0.9% NaCl and sterilized by microfiltration using 0.2 μm pore size filters (Supor Acrodisc 25, Gelman Sciences, Ann Arbor, Mich.). The PG490-88 stock solutions were diluted in 0.9% NaCl for IP administration.

CC(C)[C@]12O[C@H]1[C@@H]1O[C@]13[C@]1(O[C@H]1C[C@H]1C4=C(CC[C@@]13C)C(=O)OC4)[C@@H]2OC(=O)CCC(=O)[O-].[Na+] [PG490-88, 14-succinyl triptolide sodium salt]
half-life in mouse serum: < 5 min
